Patent US20230310347A1, “BACTERICIDE” (priority 2020, published 2023)

How the values were obtained:
[1] = tested on: Propionibacterium acnes (GAI 5419); assay: Bactericidal property (Propionibacterium acnes), number of viable bacteria; format: cell-based; conditions: for bactericidal effects against Cutibacterium acnes (in words): each ingredient alone, concentration not given
Experimental: Propionibacterium acnes (GAI 5419) was inoculated on a GAM agar medium (manufactured by Nissui Pharmaceutical Co., Ltd.) and precultured under anaerobic conditions at 35° C.±1° C. for 18 to 24 hours. A solution containing Propionibacterium acnes was prepared by diluting the solution to 10^7 to 10^8 bacteria/mL of Propionibacterium acnes with physiological saline.
Next, 10 mL of the samples obtained in Preparation Example 1 were inoculated with 0.1 mL of the above-mentioned solution containing Propionibacterium acnes. These were stored at room temperature for 30 minutes and then diluted 10-fold with an SCDLP agar medium (manufactured by Nihon Pharmaceutical Co., Ltd.) and neutralized. These were poured onto a GAM agar medium (manufactured by Nissui Pharmaceutical Co., Ltd.) according to the pour plate culture method, and anaerobically cultured at 35° C.±1° C. for 2 to 5 days. After that, the numbers of viable bacteria were determined from the numbers of colonies formed and the dilution factor. It is noted that physiological saline was used for the control in place of the samples.
The numbers of viable bacteria were determined in the same manner as Experiment Example 1-1 except that the samples obtained in Preparation Example 1 were changed to the samples obtained in Preparation Example 2.
The numbers of viable bacteria were determined in the same manner as Experiment Example 1-1 except that the samples obtained in Preparation Example 1 were changed to the above-mentioned Samples α30 to α33.
Furthermore, Sample β20 (100 μg/mL of Hinokitiol+100 μg/mL of linalool) was prepared in the same manner as Sample al except that tea tree oil was changed to linalool.

[2] = Storage stability of ingredient (B) alone or mixed with Hinokitiol, GC area percentage; format: physicochemical
Experimental: The storage stability of limonene alone and the storage stability of limonene mixed with Hinokitiol were evaluated.
Specifically, limonene was placed in a glass vial, which was hermetically sealed by tightening a septum with an aluminum cap.
Furthermore, 50 parts by mass of limonene and 50 parts by mass of Hinokitiol were mixed, placed in a glass vial different from the above-described glass vial, and hermetically sealed by tightening a septum with an aluminum cap. These two samples were stored at 60° C. for 7 days, and the area percentage of limonene in the glass vials was measured by GC (the instrument: GC-2010 Plus manufactured by Shimadzu Corporation; the detector: flame ionization detector; the column: DB-624 manufactured by Agilent Technologies Japan, Ltd.) immediately after the start of the experiment, after 1 day, after 4 days, and after 7 days. The initial data (immediately after the start of the experiment) was the GC measurement result of limonene alone.
Regarding α-terpinene, γ-terpinene, and terpinen-4-ol, the storage stability of each of these alone and the storage stability of each of these mixed with Hinokitiol were evaluated.
Specifically, measurements were made in the same manner as Experiment Example 6-1 except that limonene was changed to α-terpinene, γ-terpinene, and terpinen-4-ol, respectively. It is noted that, regarding γ-terpinene, GC measurements were only made immediately after the start of the experiment, after one day, and after seven days.

[3] = 60° C., After 1 day, Hinokitiol Absent
[4] = 60° C., After 1 day, Hinokitiol Present (50:50 parts by mass)
[5] = 60° C., After 4 days, Hinokitiol Absent
[6] = 60° C., After 4 days, Hinokitiol Present (50:50 parts by mass)
[7] = 60° C., After 7 days, Hinokitiol Absent
[8] = 60° C., After 7 days, Hinokitiol Present (50:50 parts by mass)
[9] = Immediately after the start of the experiment, Hinokitiol Absent
[10] = Immediately after the start of the experiment, Hinokitiol Present (initial data = GC result of ingredient alone)

For `CC(C)c1cccc(=O)c(O)c1` [Hinokitiol], the “bactericidal effects against Propionibacterium acnes (in words)” value ([1]; 100 μg/mL, Tables 1 and 2) was “insufficient bactericidal effects” and the “bactericidal effects against Propionibacterium acnes (in words)” value ([1]; 50 βg/mL, Table 5) was “insufficient bactericidal effects”.

For `Cc1cc(O)ccc1C(C)C` [Isopropylmethylphenol, 4-isopropyl-3-methylphenol], the “bactericidal effects against Propionibacterium acnes (in words)” value ([1]; 100 μg/mL, Tables 1 and 2) was “insufficient bactericidal effects”.

For `CC1=CCC(O)(C(C)C)CC1` (stereo not shown) [Terpinen-4-ol, terpinen-4-ol], the “bactericidal effects against Propionibacterium acnes (in words)” value ([1]; 100 μg/mL, Tables 1 and 2) was “insufficient bactericidal effects”, the “bactericidal effects against Propionibacterium acnes (in words)” value ([1]; 50 βg/mL, Table 5) was “insufficient bactericidal effects” and the “bactericidal effects against Cutibacterium acnes (in words)” value [1] was “insufficient”. For the same compound, the “residual ratio (area percentage (%))” value [2, 3] was 92.86%, the “residual ratio (area percentage (%))” value [2, 4] was 97.13% and the “residual ratio (area percentage (%))” value [2, 5] was 84.09%. The “residual ratio (area percentage (%))” value [2, 6] was 96.83%, the “residual ratio (area percentage (%))” value [2, 7] was 74.45% and the “residual ratio (area percentage (%))” value [2, 8] was 96.52%. The “residual ratio (area percentage (%))” value [2, 9] was 96.94% and the “residual ratio (area percentage (%))” value [2, 10] was 96.94%.

For `CC1=CC=C(C(C)C)CC1` [α-Terpinene, α-terpinene], the “bactericidal effects against Propionibacterium acnes (in words)” value ([1]; 100 μg/mL, Tables 1 and 2) was “no bactericidal effects”, the “bactericidal effects against Propionibacterium acnes (in words)” value ([1]; 50 βg/mL, Table 5) was “no bactericidal effects” and the “bactericidal effects against Cutibacterium acnes (in words)” value [1] was “almost no bactericidal effects”. For the same compound, the “residual ratio (area percentage (%))” value [2, 3] was 85.27%, the “residual ratio (area percentage (%))” value [2, 4] was 82.68% and the “residual ratio (area percentage (%))” value [2, 5] was 81.54%. The “residual ratio (area percentage (%))” value [2, 6] was 77.11%, the “residual ratio (area percentage (%))” value [2, 7] was 78.45% and the “residual ratio (area percentage (%))” value [2, 8] was 70.49%. For the same compound, the “residual ratio (area percentage (%))” value [2, 9] was 89.95% and the “residual ratio (area percentage (%))” value [2, 10] was 89.95%.

In the case of `CC1=CCC(C(C)C)=CC1` [γ-Terpinene, γ-terpinene], the “bactericidal effects against Propionibacterium acnes (in words)” value ([1]; 100 μg/mL, Tables 1 and 2) is reported as “no bactericidal effects”, the “bactericidal effects against Propionibacterium acnes (in words)” value ([1]; 50 βg/mL, Table 5) is reported as “no bactericidal effects” and the “bactericidal effects against Cutibacterium acnes (in words)” value [1] is reported as “almost no bactericidal effects”. The “residual ratio (area percentage (%))” value [2, 3] was 92.09%, the “residual ratio (area percentage (%))” value [2, 4] was 92.22% and the “residual ratio (area percentage (%))” value [2, 7] was 85.49%. The “residual ratio (area percentage (%))” value [2, 8] was 84.44%, the “residual ratio (area percentage (%))” value [2, 9] was 96.81% and the “residual ratio (area percentage (%))” value [2, 10] was 96.81%.

In the case of (+)-Limonene, the “bactericidal effects against Propionibacterium acnes (in words)” value ([1]; 100 μg/mL, Tables 1 and 2) is reported as “no bactericidal effects”, the “bactericidal effects against Propionibacterium acnes (in words)” value ([1]; 50 βg/mL, Table 5) is reported as “no bactericidal effects” and the “bactericidal effects against Cutibacterium acnes (in words)” value [1] is reported as “almost no bactericidal effects”. For the same compound, the “residual ratio (area percentage (%))” value [2, 3] was 95.67%, the “residual ratio (area percentage (%))” value [2, 4] was 96.49% and the “residual ratio (area percentage (%))” value [2, 5] was 95.45%. For the same compound, the “residual ratio (area percentage (%))” value [2, 6] was 96.57%, the “residual ratio (area percentage (%))” value [2, 7] was 94.43% and the “residual ratio (area percentage (%))” value [2, 8] was 96.41%. The “residual ratio (area percentage (%))” value [2, 9] was 96.85%, the “residual ratio (area percentage (%))” value [2, 10] was 96.85% and the “storage stability (in words)” value ([2]; when combined with a phenol derivative typified by Hinokitiol, Tables 10 to 13) was “superior storage stability”.
